These results are taken from patent US11155539B2, “4-pyridinylmethyl-morpholine derivatives and the use thereof as medicament” (Boehringer Ingelheim International GmbH, priority 2018, dated 2021).

For experiment [1], the target named is T1, NMDA NR1/NR2B receptor (Homo sapiens, UniProt Q13224).
T1 construct: host or cells: HEK293, tetracycline-inducible expression
Put plainly: In vitro NMDA NR1/NR2B cell assay (FLIPR, intracellular calcium induced by glycine/glutamate). The experiment is classed as cell-based. The settings on record: see Table 2. As for the experimental part: (§1) A human HEK293 cell line with tetracyclin-inducible expression of NMDA NR1/NR2B receptor was used as a test system for compound efficacy and potency. The cell line was purchased from ChanTest, Catalog #CT6121. Compound activity was determined by measuring the effect of compounds on intracellular calcium concentration induced by glycine/glutamate agonism in a FLIPRtetra system (Molecular Devices).
(§2) The cells were obtained as frozen cells in cryo-vials and stored until use at −150° C. Cells were grown in culture medium (DMEM/F12, 10% FBS, 5 μg/mL Blasticidin, 150 μg/mL Zeozin, 500 μg/mL Geneticin). […] For sub-culturing the cells were detached from flasks by Versene. For the assay, cells were detached, washed twice with induction medium (DMEM/F12 without glutamine, 10% FBS, 2 μg/mL Tetracycline, 2 mM Ketamine) and seeded to 384 well pure coat amine plates (Becton Dickinson, 50000 cells per well in 50 μl) 48 h prior to assay in induction medium.
(§3) The test compounds were dissolved in 100% DMSO at a concentration of 10 mM and in a first step diluted in DMSO to a concentration of 5 mM, followed by serial dilution steps in 100% DMSO. Dilution factor and number of dilution steps may vary according to needs. Typically 8 different concentrations by 1:5 dilutions were prepared in duplicate, further intermediate dilutions (1:37.5) of the substances were carried out with aqueous assay buffer (137 mM NaCl, 4 mM KCl, 1.8 mM CaCl2, 10 mM HEPES, 10 mM Glucose, pH 7.4) resulting in a compound concentration 3 times above the final test concentration and DMSO at 2.7% resulting in 0.9% final DMSO concentration in the assay.
(§4) At the assay day cells were washed 3× with assay buffer (as described above), 10 μL buffer remained in the wells after washing. 10 μL Ca kit loading buffer (AAT Bioquest; prepared from the kit containing the following components: Component A: Fluo-8 NW dissolved in 200 μL DMSO and 20 μl of this solution are mixed with 10 ml buffer prepared out of component B and C, Component B: 10× Pluronic® F127 Plus diluted 1:10 in component C, Component C: HHBS (Hanks with 20 mM Hepes) was added to the cells and the plates were incubated with lid for 60 minutes at room temperature. 20 μl assay buffer containing 60 μM glycine (20 μM final) and 3 μM glutamate (1 μM final) was added to column 1-23, column 24 got assay buffer without glycine/glutamate to serve as negative unstimulated control. Fluorescence (indicating the calcium influx as a result of the NR1/NR2B ion channel activation) was read on the FLIPRtetra device for 60 seconds to monitor the glutamate induced effects. After 2 minutes 20 μL of compound dilution prepared as described above or controls (row 1-22) in assay buffer were carefully added to the wells. […] The average of 2 measurements at 5 minutes and […] 10 seconds after compound addition is calculated and further used for IC50 calculations. Each assay microtiter compound dilution plate contained wells (in column 23 or 24) with DMSO controls instead of compound as controls for glycine/glutamate induced fluorescence (high controls) and wells with 1 μM of a reference NR2B NAM as low controls (Compound 22; reference: Layton, Mark E et al, ACS Chemical Neuroscience 2011, 2(7), 352-362).
(§5) The output file of the reader contains the well number and measured average fluorescence units. For data evaluation and calculation, the measurement of the low control was set as 0% control and the measurement of the high control was set as 100% control. The IC50 values were calculated using the standard 4 parameter logistic regression formula. Calculation: [y=(a−d)/(1+(x/c)^b)+d], a=low value, d=high value; x=conc M; c=IC50 M; b=slope.
On the technique in general: Calcium assays in cells follow changes in intracellular calcium, usually with a dye or a luminescent sensor.

Experiment [2] deals with T2, Nav1.6 (Homo sapiens, UniProt Q9UQD0). Nature of the experiment: Nav 1.6 inhibition, IonWorks Quattro electrophysiology. Format: cell-based. Here is the method: Determination of Nav 1.6.Inhibition
IonWorks Quattro electrophysiological platform
The compounds were prepared in DMSO at 300× the final assay concentrations of 1 and 5 μM.
The 300×DMSO stock solutions were transferred into assay plates where 2 μl per well of each 300× stock solution were placed. All assay plates were stored at −80° C. until the day of assay.
On the day of the assay, the appropriate assay plate was thawed at room temperature, centrifuged, and 198 μl of external recording solution was added and mixed thoroughly. This provided a 1:100 dilution. A further 1:3 dilution occurred upon addition to the cells in the IonWorks Quattro electrophysiological platform, giving a 1:300 dilution in total. On each assay plate, at least 8 wells were reserved for vehicle control (0.3% DMSO) and at least 8 wells for each positive control specific to the cell line tested. The positive controls were tested at a maximal blocking and an approximate IC50 concentration. As positive control Lidocaine at concentrations of 30 and 1000 μM was used.
The solutions for recording Nav1.6 currents were as follows:
Amphotericin B was used to obtain electrical access to the cell interior at a final concentration of 200 μg/ml in internal recording solution.
State-dependent inhibition: Sodium channels when held at depolarized potential or long test pulse, the channels open and inactivate and then stay inactivated until the membrane potential is stepped back to hyperpolarized potentials, when the inactivated channels recover from inactivation into closed state.
Cells were held at −120 mV. In order to completely inactivate the sodium channels (pulse 1), the cells were pulsed to +0 mV for 2500 ms and stepped back to −120 mV for 10 ms (to completely recover from inactivation, however channels that had drugs bound to them will not recover from inactivation) before stepping to +0 mV for 20 ms (pulse 2).
Both the positive and vehicle control data associated with each cell line assayed are shown below as an example. The mean is shown for each positive and negative control as solid symbol with the total number of individual well replicates given next to the solid symbol. In addition, the individual data of each well are shown on the graph as open symbols so that the variation about the mean value can be readily assessed.
Shown below are the assay controls for the Nav1.6 IonWorks Quattro assay.
Tables 3 and 4 show the normalized percentage inhibition of Nav1.6 channel. […] (see also the figure Assay Control Results above).
A general note: Patch clamp records ionic current or voltage across a cell membrane.

In experiment [3] the target is T2, Nav1.6. Particulars: reported in WO2015/130905; cited from earlier work.
The target in experiment [4] is T3, NMDA NR1/NR2B receptor (Homo sapiens, UniProt Q05586+Q13224).
T3 construct: host or cells: HEK293, tetracycline-inducible expression
Nature of the experiment: In vitro NMDA NR1/NR2B cell assay (FLIPR, intracellular calcium induced by glycine/glutamate). Format: cell-based. The settings on record: HEK293 cells expressing NMDA NR1/NR2B; 20 μM glycine, 1 μM glutamate; read-out: IC50 (in vitro NR2B affinity, FLIPR assay). As for the experimental part:
as §1, §2, §3, §4, §5

T2 sequence (Q9UQD0 whole entry): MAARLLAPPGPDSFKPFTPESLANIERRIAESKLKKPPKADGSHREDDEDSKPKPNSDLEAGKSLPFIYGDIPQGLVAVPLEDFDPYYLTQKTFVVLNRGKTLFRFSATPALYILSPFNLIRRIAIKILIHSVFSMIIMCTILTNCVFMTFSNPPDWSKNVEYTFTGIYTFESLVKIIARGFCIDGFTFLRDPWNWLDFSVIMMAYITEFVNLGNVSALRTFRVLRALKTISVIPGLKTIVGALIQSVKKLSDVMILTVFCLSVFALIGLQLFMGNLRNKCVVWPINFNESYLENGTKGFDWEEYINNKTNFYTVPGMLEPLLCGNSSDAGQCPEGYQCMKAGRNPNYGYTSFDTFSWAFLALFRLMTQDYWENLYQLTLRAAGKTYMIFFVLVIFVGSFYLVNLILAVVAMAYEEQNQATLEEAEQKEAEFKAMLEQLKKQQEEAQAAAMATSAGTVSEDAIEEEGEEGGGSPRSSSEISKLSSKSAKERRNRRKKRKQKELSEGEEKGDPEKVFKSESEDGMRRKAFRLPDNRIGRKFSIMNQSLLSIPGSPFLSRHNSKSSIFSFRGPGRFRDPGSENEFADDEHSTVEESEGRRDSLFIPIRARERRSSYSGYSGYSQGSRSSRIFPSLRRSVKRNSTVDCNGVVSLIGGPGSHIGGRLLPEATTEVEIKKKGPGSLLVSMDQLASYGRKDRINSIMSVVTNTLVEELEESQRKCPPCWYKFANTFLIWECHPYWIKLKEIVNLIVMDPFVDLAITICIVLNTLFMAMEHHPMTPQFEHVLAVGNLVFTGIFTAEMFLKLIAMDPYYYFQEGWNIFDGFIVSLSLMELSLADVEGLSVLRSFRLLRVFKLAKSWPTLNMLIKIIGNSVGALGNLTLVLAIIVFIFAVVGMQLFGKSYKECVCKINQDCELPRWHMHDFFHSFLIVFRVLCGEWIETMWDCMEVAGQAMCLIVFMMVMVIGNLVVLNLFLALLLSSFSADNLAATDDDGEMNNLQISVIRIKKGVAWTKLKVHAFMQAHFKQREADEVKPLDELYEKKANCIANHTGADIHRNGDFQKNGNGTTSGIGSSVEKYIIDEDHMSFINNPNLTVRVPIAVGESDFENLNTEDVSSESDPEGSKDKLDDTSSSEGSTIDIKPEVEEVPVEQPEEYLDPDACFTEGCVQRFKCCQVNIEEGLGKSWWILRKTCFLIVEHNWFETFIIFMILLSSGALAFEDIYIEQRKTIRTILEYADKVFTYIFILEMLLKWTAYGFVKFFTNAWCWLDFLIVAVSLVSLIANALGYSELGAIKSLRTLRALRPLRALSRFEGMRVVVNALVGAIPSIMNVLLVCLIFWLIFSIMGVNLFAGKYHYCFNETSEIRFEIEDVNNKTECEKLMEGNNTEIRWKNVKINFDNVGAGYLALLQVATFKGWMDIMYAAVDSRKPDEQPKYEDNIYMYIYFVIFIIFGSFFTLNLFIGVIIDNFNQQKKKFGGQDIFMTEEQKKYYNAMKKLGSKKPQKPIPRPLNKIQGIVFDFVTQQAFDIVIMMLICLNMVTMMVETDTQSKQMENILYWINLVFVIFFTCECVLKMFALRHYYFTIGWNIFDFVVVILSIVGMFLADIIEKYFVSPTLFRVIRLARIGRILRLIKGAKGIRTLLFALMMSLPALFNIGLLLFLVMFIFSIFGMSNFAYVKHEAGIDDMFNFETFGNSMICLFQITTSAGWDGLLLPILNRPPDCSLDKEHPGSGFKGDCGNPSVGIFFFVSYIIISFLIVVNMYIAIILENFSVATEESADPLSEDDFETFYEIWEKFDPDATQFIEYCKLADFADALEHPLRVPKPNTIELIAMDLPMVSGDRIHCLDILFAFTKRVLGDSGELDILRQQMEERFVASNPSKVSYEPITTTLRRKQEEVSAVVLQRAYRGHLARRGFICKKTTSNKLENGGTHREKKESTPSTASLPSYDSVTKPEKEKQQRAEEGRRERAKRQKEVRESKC
T1 sequence (Q13224 27-1484, other chains not shown): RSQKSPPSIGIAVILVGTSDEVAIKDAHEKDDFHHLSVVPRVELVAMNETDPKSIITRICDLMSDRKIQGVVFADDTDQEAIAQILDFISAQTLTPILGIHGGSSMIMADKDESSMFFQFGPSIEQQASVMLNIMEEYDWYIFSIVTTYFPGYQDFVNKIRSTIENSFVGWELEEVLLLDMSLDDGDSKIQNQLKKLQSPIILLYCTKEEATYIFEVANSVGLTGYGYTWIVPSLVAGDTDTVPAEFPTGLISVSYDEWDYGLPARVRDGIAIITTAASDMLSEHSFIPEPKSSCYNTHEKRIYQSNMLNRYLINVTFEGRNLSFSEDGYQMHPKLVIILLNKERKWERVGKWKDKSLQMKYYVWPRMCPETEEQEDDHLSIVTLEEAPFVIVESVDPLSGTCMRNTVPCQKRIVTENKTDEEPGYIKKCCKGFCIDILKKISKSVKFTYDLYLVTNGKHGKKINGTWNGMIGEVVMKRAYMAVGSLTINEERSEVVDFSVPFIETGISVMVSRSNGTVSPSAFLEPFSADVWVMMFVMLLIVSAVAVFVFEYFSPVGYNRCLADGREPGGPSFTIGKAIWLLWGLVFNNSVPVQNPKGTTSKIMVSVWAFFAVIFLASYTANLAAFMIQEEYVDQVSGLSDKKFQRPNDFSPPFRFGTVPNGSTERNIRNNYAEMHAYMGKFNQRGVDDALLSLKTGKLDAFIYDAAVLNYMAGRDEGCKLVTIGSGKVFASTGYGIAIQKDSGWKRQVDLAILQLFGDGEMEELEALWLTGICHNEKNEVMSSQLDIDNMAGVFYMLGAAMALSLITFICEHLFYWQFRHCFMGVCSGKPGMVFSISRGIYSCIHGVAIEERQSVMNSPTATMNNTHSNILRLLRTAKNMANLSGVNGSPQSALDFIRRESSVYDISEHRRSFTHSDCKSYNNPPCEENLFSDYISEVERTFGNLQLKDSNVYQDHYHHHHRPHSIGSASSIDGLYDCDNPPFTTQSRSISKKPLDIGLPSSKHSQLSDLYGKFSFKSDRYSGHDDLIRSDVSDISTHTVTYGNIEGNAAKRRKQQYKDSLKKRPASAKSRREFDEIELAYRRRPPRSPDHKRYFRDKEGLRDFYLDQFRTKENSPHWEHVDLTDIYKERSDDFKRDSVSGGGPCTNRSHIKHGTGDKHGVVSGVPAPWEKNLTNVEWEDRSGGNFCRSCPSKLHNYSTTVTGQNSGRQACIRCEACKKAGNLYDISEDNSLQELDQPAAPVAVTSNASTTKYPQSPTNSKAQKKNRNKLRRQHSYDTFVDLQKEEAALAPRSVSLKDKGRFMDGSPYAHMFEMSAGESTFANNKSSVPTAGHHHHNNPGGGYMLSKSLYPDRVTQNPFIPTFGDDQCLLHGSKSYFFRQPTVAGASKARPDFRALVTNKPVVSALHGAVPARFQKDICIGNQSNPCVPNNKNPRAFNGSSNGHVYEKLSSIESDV
T3 sequence (Q13224 27-1484, other chains not shown): as above

Turning to `O=C(C1CN(Cc2cccc(Oc3ccccc3)c2)CCO1)N1CCOCC1` (stereo not drawn) [Example 106 of WO2015/130905, reference compound], the “activity on the NR1-NR2B ion channel (in words)” value at NMDA NR1/NR2B receptor [1] is “do not show any activity”. In addition, the “significant inhibition of the Nav 1.6 channel (in words)” value on Nav1.6 [2] (at 5 μM) was “not showing any significant inhibition”; at Nav1.6 [2] (at 1 and 5 μM), “do not show any significant inhibition”. For the same compound, the “Nav 1.6 blockage” value at Nav1.6 [3] is over 5 µM.
The term IC50 denotes the point on the concentration scale where inhibition reaches its midpoint. In general, inhibition refers to the relative decrease from the control value, in per cent. `COCCNC(=O)C1CN(Cc2cccc(Oc3ccccc3)c2)CCO1` (stereo not drawn) [Example 107 of WO2015/130905, reference compound]: the IC50 at NMDA NR1/NR2B receptor [4] is over 9.26 µM. Further, at NMDA NR1/NR2B receptor [1], the “activity on the NR1-NR2B ion channel (in words)” value is given as “do not show any activity”. The inhibition at 1 µM against Nav1.6 [2] (1 μM, normalized to vehicle control (0%) and maximal inhibition control (100%)) was -8.5%. At Nav1.6 [2] (5 μM, normalized to vehicle control (0%) and maximal inhibition control (100%)), the inhibition at 5 µM came to 13.1%. The “significant inhibition of the Nav 1.6 channel (in words)” value at Nav1.6 [2] (at 1 and 5 μM) is recorded as “do not show any significant inhibition”.
